In patent US9199946B2, “Pyrimidinone carboxamide inhibitors of endothelial lipase” (BRISTOL-MYERS SQUIBB COMPANY, priority 2012, dated 2015):
Like-named read-outs stand apart in the source and are kept apart here.

Target: T1, Endothelial lipase (EL) (Homo sapiens, UniProt Q9Y5X9)
T1 construct: HT-1080 cells, which were transformed by RAGE technology (Athersys) to overexpress endogenous EL; endogenous in cells; conditioned medium used as the enzyme source
T1 sequence (Q9Y5X9 21-500): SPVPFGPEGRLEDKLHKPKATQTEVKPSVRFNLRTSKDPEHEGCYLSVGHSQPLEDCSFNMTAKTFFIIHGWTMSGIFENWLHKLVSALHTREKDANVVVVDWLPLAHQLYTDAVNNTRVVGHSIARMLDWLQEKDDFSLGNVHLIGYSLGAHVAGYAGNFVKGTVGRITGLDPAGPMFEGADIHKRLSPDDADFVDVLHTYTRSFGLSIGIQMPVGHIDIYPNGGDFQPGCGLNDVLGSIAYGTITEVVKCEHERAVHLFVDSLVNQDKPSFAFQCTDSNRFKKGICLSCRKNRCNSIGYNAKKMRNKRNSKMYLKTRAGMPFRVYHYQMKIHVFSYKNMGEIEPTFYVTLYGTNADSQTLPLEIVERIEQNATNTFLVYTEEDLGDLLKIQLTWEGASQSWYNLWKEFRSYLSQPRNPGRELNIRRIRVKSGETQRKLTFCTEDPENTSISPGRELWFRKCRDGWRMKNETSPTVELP
Assay: Endothelial lipase (EL) enzymatic assay with fluorescent substrate A10070 in DMPG vesicles
Format: biochemical
Experimental: Endothelial lipase activity was measured using a fluorescent substrate, A10070, (Invitrogen, CA) doped into an artificial vesicle containing DMPG (Avanti Polar Lipids) as the excipient. Vesicles were prepared by combining 285 μL of 1 mM DMPG in a 1:1 mixture of MeOH and CHCl3 with 15 μL of 1 mM A10070 in a 1:1 mixture of MeOH and CHCl3. The mixture was dried under nitrogen and resuspended in 150 μL of 50 mM HEPES pH 8.0 buffer containing 100 mM NaCl and 0.2 mM EDTA. The sample was allowed to sit at rt for 15 min and then was sonicated 3×4 mins on ice with a Branson Sonicator using duty cycle 1. This preparation provides vesicles with a mole fraction of 0.05 for the FRET substrate.
The enzymatic assay was measured using white, opaque 96-well half area plates. Each well contained 60 μL of assay buffer (50 mM HEPES pH 8.0, 50 mM NaCl and 1 mM CaCl2) and 2 ul of a DMSO solution containing compound of interest. Conditioned media obtained from HT-1080 cells, which were transformed by RAGE technology (Athersys) to overexpress endogenous EL, was added and the reaction was allowed to incubate for 20 min at 37° C. with gentle agitation. The reaction was started by the addition of 20 μL of a 1:4 dilution of vesicles. The final total reaction volume was 100 μL. The reaction rates were measured on a Gemini plate reader with an excitation wavelength of 488 nm and an emission of 530 nm. Readings were taken every 20 seconds for 10 min with agitation between each reading. The slope of the linear portion of the readout was used to calculate the rate of the reaction.

[1] = range observed in the EL assay, read-out: EL IC50 values
[2] = conditioned media from HT-1080 cells overexpressing endogenous EL, 20 min preincubation at 37° C., read-out: EL IC50

SMILES	IC50 [1]	IC50 [2]
COc1cccc2c1C[C@H](NC(=O)c1[nH]c(=O)[nH]c(=O)c1N)CC2 [Example 110, (R)-5-amino-N-(8-methoxy-1,2,3,4-tetrahydronaphthalen-2-yl)-2,6-dioxo-1,2,3,6-tetrahydropyrimidine-4-carboxamide]	≤ 10 µM	
COC(=O)[C@H]1CC[C@@H](NC(=O)c2[nH]c(=O)[nH]c(=O)c2N)CC1 [Example 43, cis-methyl 4-(5-amino-2,6-dioxo-1,2,3,6-tetrahydropyrimidine-4-carboxamido) cyclohexanecarboxylate]	≤ 10 µM	
Nc1c(C(=O)NC2CCCc3ccsc32)[nH]c(=O)[nH]c1=O (stereo not shown) [Example 46, 5-amino-2,6-dioxo-N-(4,5,6,7-tetrahydrobenzo[b]thiophen-7-yl)-1,2,3,6-tetrahydropyrimidine-4-carboxamide]	≤ 10 µM	3.32 µM
Nc1c(C(=O)NC2CCCC(c3ccccc3)C2)[nH]c(=O)[nH]c1=O (stereo not shown) [Example 101, 5-amino-2,6-dioxo-N-(3-phenylcyclohexyl)-1,2,3,6-tetrahydropyrimidine-4-carboxamide]	≤ 10 µM	
Nc1c(C(=O)N[C@@H]2CCc3c(Oc4ccccc4)cccc32)[nH]c(=O)[nH]c1=O [Example 88, (R)-5-amino-2,6-dioxo-N-(4-phenoxy-2,3-dihydro-1H-inden-1-yl)-1,2,3,6-tetrahydropyrimidine-4-carboxamide]	≤ 10 µM	
Nc1c(C(=O)N[C@@H]2CC[C@@H](C(=O)N[C@H]3CCCc4ccccc43)C2)[nH]c(=O)[nH]c1=O [Example 146, 5-amino-2,6-dioxo-N-((1R,3R)-3-((S)-1,2,3,4-tetrahydronaphthalen-1-ylcarbamoyl)cyclopentyl)-1,2,3,6-tetrahydropyrimidine-4-carboxamide]	≤ 10 µM	
Nc1c(C(=O)N[C@@H]2CCc3c2cccc3C(F)(F)F)[nH]c(=O)[nH]c1=O [Example 14, (R)-5-amino-2,6-dioxo-N-(4-(trifluoromethyl)-2,3-dihydro-1H-inden-1-yl)-1,2,3,6-tetrahydropyrimidine-4-carboxamide]	≤ 10 µM	2.78 µM
COc1ccc2c(c1)C(NC(=O)c1[nH]c(=O)[nH]c(=O)c1N)CCC2 (stereo not shown) [Example 39, 5-amino-N-(7-methoxy-1,2,3,4-tetrahydronaphthalen-1-yl)-2,6-dioxo-1,2,3,6-tetrahydropyrimidine-4-carboxamide]	≤ 10 µM	
O=C(N[C@H]1CC[C@H](C(=O)Nc2ccccc2)C1)c1[nH]c(=O)[nH]c(=O)c1O [Example 290, 5-hydroxy-2,6-dioxo-N-((1S,3S)-3-(phenylcarbamoyl)cyclopentyl)-1,2,3,6-tetrahydropyrimidine-4-carboxamide]	≤ 10 µM	
O=C(N[C@@H]1CCc2ccc(C(F)(F)F)cc21)c1[nH]c(=O)[nH]c(=O)c1O [Example 248, (R)-5-hydroxy-2,6-dioxo-N-(6-(trifluoromethyl)-2,3-dihydro-1H-inden-1-yl)-1,2,3,6-tetrahydropyrimidine-4-carboxamide]	≤ 10 µM	
Nc1c(C(=O)N[C@H]2CC[C@@H](NC(=O)OCc3ccccc3)CC2)[nH]c(=O)[nH]c1=O [Example 119, benzyl cis-4-(5-amino-2,6-dioxo-1,2,3,6-tetrahydropyrimidine-4-carboxamido)cyclohexylcarbamate]	≤ 10 µM	
O=C(N[C@@H]1CCc2cc(C(F)(F)F)ccc21)c1[nH]c(=O)[nH]c(=O)c1O [Example 249, (R)-5-hydroxy-2,6-dioxo-N-(5-(trifluoromethyl)-2,3-dihydro-1H-inden-1-yl)-1,2,3,6-tetrahydropyrimidine-4-carboxamide]	≤ 10 µM	
CS(=O)(=O)N1CCC(NC(=O)c2[nH]c(=O)[nH]c(=O)c2N)c2ccccc21 (stereo not shown) [Example 24, 5-amino-N-(1-(methylsulfonyl)-1,2,3,4-tetrahydroquinolin-4-yl)-2,6-dioxo-1,2,3,6-tetrahydropyrimidine-4-carboxamide]	≤ 10 µM	0.568 µM
O=C(NC1CCCc2c(CCc3ccccc3)cccc21)c1[nH]c(=O)[nH]c(=O)c1O (stereo not shown) [Example 284, 5-hydroxy-2,6-dioxo-N-(5-phenethyl-1,2,3,4-tetrahydronaphthalen-1-yl)-1,2,3,6-tetrahydropyrimidine-4-carboxamide]	≤ 10 µM	
Cn1nccc1-c1ccc([C@@H]2CC[C@H](NC(=O)c3[nH]c(=O)[nH]c(=O)c3N)C2)cc1 [Example 163, 5-amino-N-((1S,3R)-3-(4-(1-methyl-1H-pyrazol-5-yl)phenyl)cyclopentyl)-2,6-dioxo-1,2,3,6-tetrahydropyrimidine-4-carboxamide]	≤ 10 µM	2.25 µM
O=C(N[C@@H]1CC[C@@H](C(=O)NCc2nc3ccccc3s2)C1)c1[nH]c(=O)[nH]c(=O)c1O [Example 296, N-((1R,3R)-3-(benzo[d]thiazol-2-ylmethylcarbamoyl)cyclopentyl)-5-hydroxy-2,6-dioxo-1,2,3,6-tetrahydropyrimidine-4-carboxamide]	≤ 10 µM	
Nc1c(C(=O)N[C@H]2CCCc3cc(OCC(F)(F)F)ccc32)[nH]c(=O)[nH]c1=O [Example 34, (S)-5-amino-2,6-dioxo-N-(6-(2,2,2-trifluoroethoxy)-1,2,3,4-tetrahydronaphthalen-1-yl)-1,2,3,6-tetrahydropyrimidine-4-carboxamide]	≤ 10 µM	
Nc1c(C(=O)N[C@@H]2CC[C@@H](C(=O)N[C@H]3CC[C@@H](c4ccccc4)CC3)C2)[nH]c(=O)[nH]c1=O [Example 147, 5-amino-2,6-dioxo-N-((1R,3R)-3-(cis-4-phenylcyclohexylcarbamoyl)cyclopentyl)-1,2,3,6-tetrahydropyrimidine-4-carboxamide]	≤ 10 µM	
Nc1c(C(=O)N[C@@H]2CCCc3ccc(F)cc32)[nH]c(=O)[nH]c1=O [Example 40, (R)-5-amino-N-(7-fluoro-1,2,3,4-tetrahydronaphthalen-1-yl)-2,6-dioxo-1,2,3,6-tetrahydropyrimidine-4-carboxamide]	≤ 10 µM	
Nc1c(C(=O)N[C@@H]2CCCc3c(NC(=O)c4ccccc4)cccc32)[nH]c(=O)[nH]c1=O [Example 124, (R)-5-amino-N-(5-benzamido-1,2,3,4-tetrahydronaphthalen-1-yl)-2,6-dioxo-1,2,3,6-tetrahydropyrimidine-4-carboxamide]	≤ 10 µM	
Nc1c(C(=O)N[C@H]2CC[C@@H](c3ccccc3)C2)[nH]c(=O)[nH]c1=O [Example 78, 5-amino-2,6-dioxo-N-((1S,3R)-3-phenylcyclopentyl)-1,2,3,6-tetrahydropyrimidine-4-carboxamide]	≤ 10 µM	
Nc1c(C(=O)N[C@H]2CC[C@@H](c3ccccc3)CC2)[nH]c(=O)[nH]c1=O [Example 3, 5-amino-2,6-dioxo-N-(cis-4-phenylcyclohexyl)-1,2,3,6-tetrahydropyrimidine-4-carboxamide]	≤ 10 µM	
Nc1c(C(=O)N[C@@H]2CCCc3ccccc32)[nH]c(=O)[nH]c1=O [Example 13, (R)-5-amino-2,6-dioxo-N-(1,2,3,4-tetrahydronaphthalen-1-yl)-1,2,3,6-tetrahydropyrimidine-4-carboxamide]	≤ 10 µM	
Nc1c(C(=O)N[C@H]2CC[C@@H](NC(=O)c3ccccc3)CC2)[nH]c(=O)[nH]c1=O [Example 115, 5-amino-N-(cis-4-benzamidocyclohexyl)-2,6-dioxo-1,2,3,6-tetrahydropyrimidine-4-carboxamide]	≤ 10 µM	
